SMILES strings stand for the structures.

In assay [1] the target is PCP recognition sites. Description: [3H]TCP radioreceptor assay (internal screen), binding to PCP recognition sites in rat whole brain membranes. The following applies: 25 min, room temperature; for Ki: approx. 1 nM [3H]TCP, mean of at least two separate determinations. The arrangement: species or system rat (male Sprague-Dawley). How it is done:
[^3 H]TCP binding to PCP recognition sites was performed as described by Vignon et al. Brain Research 1983, 280, 194-197. Male Sprague-Dawley rats were sacrificed by decapitation, and whole brains were homogenized in 10 volumes (wt/vol) of cold Tris-HCl buffer (50 mM, pH 7.7) using a Brinkmann Polytron (setting 6, 30 sec). The homogenate was centrifuged at 40,000×g for 10 min at 4° C. The supernatant was decanted, and the homogenization and centrifugation steps were repeated twice as described above. Following this, the pellet was resuspended in Tris-HCl (5 mM, pH 7.7) at a tissue concentration of 0.5-0.75 g/ml, and one ml aliquots were frozen at -70° C. until use. The binding characteristics for PCP recognition sites were not altered by the freezing of membrane suspensions.
On the day of the assay, membrane aliquots were thawed, resuspended in fresh 5 mM Tris-HCl buffer at a tissue concentration of 1 mg/ml, and stored on ice until use. Each assay tube contained 100 μl of [^3 H]TCP at a final concentration of approximately 1 nM, 100 μl of various concentrations of the compounds of interest, 500 μl of the tissue suspension and 300 μl of buffer to a final assay volume of 1 ml and a final protein concentration of 0.5 mg/tube. Non-specific binding was defined by addition of a final concentration of 100 μM PCP to blank tubes. All tubes were incubated at room temperature for 25 min before termination of the reaction by rapid filtration over Whatman GF/B glass fiber filters that had been presoaked in a solution of 0.5% polyethylenimine for at least 1 hr prior to use. Filters were washed with three 4 ml volumes of cold Tris buffer. Following addition of scintillation cocktail, the amount of bound radioactivity was determined by liquid scintillation spectrometry using a Beckman LS 5000TA liquid scintillation counter with an efficiency for tritium of approximately 55%. Inhibition constants (Ki values) were calculated using the EBDA/LIGAND program (McPherson, J. Pharmacol. Meth. 1985, 14, 213-228), purchased from Elsevier/Biosoft, Inc. Results are reported as Ki values which are expressed as the mean of at least two separate determinations; or as a percent (%) inhibition of binding at 10 μM.

The test system of assay [2] is PCP recognition sites. Kind of assay: [3H]TCP radioreceptor assay (external screen), binding to PCP recognition sites in whole rat forebrain membranes. The settings on record: 25° C., 60 min. On the procedure: A procedure similar to that described above, for the [^3 H]TCP radioreceptor assay (internal screen) was utilized except that the whole rat forebrain membranes were incubated at 25° C. for 60 minutes rather than at room temperature for 25 minutes, before termination of the reaction. The results are reported as a percent (%) inhibition of binding at 10 μM.

For assay [3], the system named is NMDA-induced neurotoxicity in cultured cortical neurons. Kind of assay: Antagonism of NMDA-induced neurotoxicity in cultured cortical neurons (LDH release). Type of assay: cell-based, mouse (Swiss-Webster). The settings on record: Mus musculus, Cortical neurone; 500 μM NMDA, 30 min exposure; LDH activity 24 h after removal of NMDA; day 13 cultured cortical neurons. How it is done: Pregnant, Swiss-Webster mice were obtained from Taconic Farms (Germantown, N.Y.) and sacrificed 16 days post conception. Fetuses were removed and placed in a sterile dish containing Hank's balanced salt solution (HBSS), pH 7.4. Brain cortices were dissected, meninges were removed, the tissue was minced and placed into a solution of HBSS containing 0.25% (w/v) trypsin at 37° C. for 15 minutes. Tissue was then triturated with a sterile pasteur pipet, diluted with minimal essential media (Gibco 330-1430), pH 7.4, supplemented with 10% horse serum, 10% fetal calf serum, 2 mM 1-glutamine, 21 mM d-glucose, 2.2 g/L sodium bicarbonate, 1000 U/ml penicillin, and 1,000 μg/ml streptomycin. Cells were plated onto Falcon primaria 96 well plates at a final density of 50,000 cells/well and incubated at 37° C. in the presence of 5% (v/v) carbon dioxide. After 5 days, plating media was replaced with maintenance media containing minimal essential media (Gibco 330-1430), pH 7.4, supplemented with 10% horse serum, 10% 1-glutamine, 21 mM d-glucose, 2.2 g/l sodium bicarbonate,1,000 U/ml penicillin, 1,000 μg/ml streptomycin, and 10 μM cytosine arabinoside. On days 7 and 10, media was replaced with maintenance media as above lacking the cytosine arabinoside. Experiments were conducted on day 13. […]
(In general: LDH leaks from cells whose membrane has failed.)

`C1=CC2C3c4ccccc4C(C2C1)[n+]1ccccc13` (centres unmarked) [15(a), 6,11-[3',4']cyclopentenyl-6,11-dihydrobenzo[b]quinolizinium bromide] had a Ki in assay [1] of 464 nM. Further, the “[3H]TCP (external screen) Percent Inhibition (%) @10 μM” value in assay [2] is reported as 92%. In the case of `Brc1ccc2c(c1)C1c3cccc[n+]3C2C2CC=CC12` (centres unmarked) [4(c), 9-bromo-6,11[3',4']cyclopentenyl-6,11-dihydrobenzo[b]quinolizinium bromide], the affinity in assay [1] corresponds to a Ki of 1630 nM. As for `CC(C)(C)c1ccc(O)c2c1C1c3ccccc3C2[n+]2ccccc21` (centres unmarked) [15(c), 7-Hydroxy-10-tert-butyl-6,11-benzeno-6,11-dihydrobenzo[b]quinolizinium perchlorate], in assay [1], the “[3H]TCP (internal screen) Percent Inhibition @10 μM” value is on record as 10%. Moreover, in assay [2], the “[3H]TCP (external screen) Percent Inhibition (%) @10 μM” value amounted to 24%. `c1ccc2c(c1)C1c3cccc[n+]3C2C2CCCC12` (centres unmarked) [Example 13(b), 6,11[1',2']cyclopentyl-6,11-dihydrobenzo[b]quinolizinium perchlorate.1/2 hydrate]: the affinity in assay [1] (hydrate), expressed as Ki, was 366 nM. The same compound gave an IC50 in assay [3] of 8400 nM. `Fc1ccc2c(c1)C1c3cccc[n+]3C2C2CC=CC12` (centres unmarked) [5(c), 9-fluoro-6,11[3',4']cyclopentenyl-6,11-dihydrobenzo-[b]quinolizinium perchlorate] returned a Ki in assay [1] of 806 nM. On to `Cc1cccc2c1C1c3ccccc3C2c2cccc[n+]21` (centres unmarked) [15(d), 7-Methyl-6,11-benzeno-6,11-dihydrobenzo[b]quinolizinium perchlorate], for which, in assay [1], the “[3H]TCP (internal screen) Percent Inhibition @10 μM” value stood at 52%. For the same compound, the “[3H]TCP (external screen) Percent Inhibition (%) @10 μM” value in assay [2] is on record as 11%. In assay [1], `C1=CC2C3c4ccccc4C(C2CC1)[n+]1ccccc13` (centres unmarked) [Example 1, 6,11[3',4']-cyclohexenyl-6,11-dihydrobenzo[b]quinolizinium bromide] displayed a Ki of 245 nM. As for `CC(C)=C1C=CC2C3c4ccccc4C(C12)[n+]1ccccc13` (centres unmarked) [14(b), 6,11-[5'-isopropylidene-[3',4']cyclopentenyl]-6,11-dihydrobenzo[b]quinolizinium perchlorate], the affinity in assay [1], expressed as Ki, was 367 nM. The same measure, in the same setting: as for `c1ccc2c(c1)C1c3cccc[n+]3C2C2CCOC12` (centres unmarked) [Example 8, 6,11[2',3']tetrahydrofuranyl-6,11-dihydrobenzo[b]-quinolizinium bromide], the figure is 8490 nM. The compound `c1ccc2c(c1)C1c3cccc[n+]3C2C2CCCC12` (centres unmarked) [Example 13(a), 6,11[1',2']cyclopentyl-6,11-dihydrobenzo[b]quinolizinium perchlorate.1/2 hydrate] returned a Ki in assay [1] (hydrate) of 1560 nM. Take `O=[N+]([O-])c1cccc2c1C1c3ccccc3C2c2cccc[n+]21` (centres unmarked) [15(b), 7-Nitro-6,11-benzeno-6,11-dihydrobenzo[b]quinolizinium perchlorate]: the “[3H]TCP (internal screen) Percent Inhibition @10 μM” value in assay [1] came to 37%. In assay [2], the “[3H]TCP (external screen) Percent Inhibition (%) @10 μM” value was found to be 9%. In assay [1], `CC12c3ccccc3C(c3cccc[n+]31)C1C=CCC12` (centres unmarked) [12(c), 6-methyl-6,11[3',4']cyclopentenyl-6,11-dihydrobenzo[b]quinolizinium perchlorate, .1/2 H2 O] returned a Ki of 93.4 nM.

The term Ki denotes the dissociation constant of the complex between target and ligand, obtained from inhibition or displacement. Read a low Ki as a stronger hold on the target. One may read the IC50 as the concentration at which inhibition is half-maximal. A low value points to greater potency.

The values above are taken from patent publication US5430036A, “6,11-substituted-6,11-dihydrobenzo[b]quinolizinium salts and compositions and method of use thereof” (Sterling Winthrop Inc., priority 1994, dated 1995).
